Results reported in paper PMC5218480 (PLoS ONE, 2017).

System: MV-4-11 cells
Assay: Gene expression microarray analysis (Affymetrix PrimeView) and GSEA
Type: cell-based, human
Design: RFU PODN (11730768_x_at) / Fold change /veh PODN (11730768_x_at) / RFU LINC00158 (11744669_a_at) / Fold change /veh LINC00158 (11744669_a_at) / RFU DUSP10 (11751237_a_at) / Fold change /veh DUSP10 (11751237_a_at) / RFU ID3 (11757404_x_at) / Fold change /veh ID3 (11757404_x_at) / RFU PLEKHG5 (11737974_s_at) / Fold change /veh PLEKHG5 (11737974_s_at) / RFU LRRC4B (11730491_at) / Fold change /veh LRRC4B (11730491_at) / RFU GIMAP4 (11747438_a_at) / Fold change /veh GIMAP4 (11747438_a_at) / RFU KRT8 (11758183_x_at) / Fold change /veh KRT8 (11758183_x_at) / RFU CNN1 (11734310_a_at) / Fold change /veh CNN1 (11734310_a_at) / RFU VPS37D (11726825_at) / Fold change /veh VPS37D (11726825_at) / RFU C10orf10 (11716522_x_at) / Fold change /veh C10orf10 (11716522_x_at) / RFU KIR2DL2 /// KIR2DL4 /// KIR2DL5A /// KIR2DL5B /// KIR2DS1 /// KIR2DS2 /// KIR2DS3 /// KIR2DS4 /// KIR3DL3 /// KIR3DL3 /// KIR3DS1 (11738374_at) / Fold change /veh KIR2DL2 /// KIR2DL4 /// KIR2DL5A /// KIR2DL5B /// KIR2DS1 /// KIR2DS2 /// KIR2DS3 /// KIR2DS4 /// KIR3DL3 /// KIR3DL3 /// KIR3DS1 (11738374_at) / RFU C1QL1 (11718748_at) / Fold change /veh C1QL1 (11718748_at) / RFU TMPRSS4 (11747572_a_at) / Fold change /veh TMPRSS4 (11747572_a_at) / RFU HAMP (11756126_x_at) / Fold change /veh HAMP (11756126_x_at) / RFU RNFT2 (11725882_a_at) / Fold change /veh RNFT2 (11725882_a_at) / RFU NR4A2 (11747474_a_at) / Fold change /veh NR4A2 (11747474_a_at) / RFU ABCC12 (11746883_a_at) / Fold change /veh ABCC12 (11746883_a_at) / RFU TMEM136 (11760407_x_at) / Fold change /veh TMEM136 (11760407_x_at) / RFU CLDN22 /// WWC2 (11732394_at) / Fold change /veh CLDN22 /// WWC2 (11732394_at) / RFU HLA-DPB1 (11760878_x_at) / Fold change /veh HLA-DPB1 (11760878_x_at) / RFU SPINT1 (11716480_a_at) / Fold change /veh SPINT1 (11716480_a_at) / RFU GAP43 (11754022_s_at) / Fold change /veh GAP43 (11754022_s_at) / RFU A4GNT (11735810_at) / Fold change /veh A4GNT (11735810_at) / RFU PRB3 (11715151_x_at) / Fold change /veh PRB3 (11715151_x_at) / RFU TUBB4B (11761932_at) / Fold change /veh TUBB4B (11761932_at) / RFU CAPN14 (11732068_a_at) / Fold change /veh CAPN14 (11732068_a_at) / RFU TMCC2 (11721928_a_at) / Fold change /veh TMCC2 (11721928_a_at) / RFU IRGQ (11745062_a_at) / Fold change /veh IRGQ (11745062_a_at) / RFU FAM174B (11720279_a_at) / Fold change /veh FAM174B (11720279_a_at) / RFU TMPRSS4 (11748680_a_at) / Fold change /veh TMPRSS4 (11748680_a_at) / RFU FAM212B (11763350_a_at) / Fold change /veh FAM212B (11763350_a_at) / RFU PLEKHG5 (11743358_a_at) / Fold change /veh PLEKHG5 (11743358_a_at) / RFU ZSCAN30 (11745921_a_at) / Fold change /veh ZSCAN30 (11745921_a_at) / RFU CMKLR1 (11741424_a_at) / Fold change /veh CMKLR1 (11741424_a_at) / RFU LOC101060620 /// MAPK8IP1 (11723275_at) / Fold change /veh LOC101060620 /// MAPK8IP1 (11723275_at) / RFU SPTSSB (11747773_x_at) / Fold change /veh SPTSSB (11747773_x_at) / RFU PRSS12 (11739890_at) / Fold change /veh PRSS12 (11739890_at) / RFU BIN1 (11741810_x_at) / Fold change /veh BIN1 (11741810_x_at) / RFU WNT11 (11732464_a_at) / Fold change /veh WNT11 (11732464_a_at) / RFU C10orf10 (11716521_a_at) / Fold change /veh C10orf10 (11716521_a_at) / RFU C5orf56 (11738089_at) / Fold change /veh C5orf56 (11738089_at) / RFU CYB561 (11721691_x_at) / Fold change /veh CYB561 (11721691_x_at) / RFU ANKRD19P (11752326_a_at) / Fold change /veh ANKRD19P (11752326_a_at) / RFU OR2T12 /// OR2T33 /// OR2T8 (11738714_s_at) / Fold change /veh OR2T12 /// OR2T33 /// OR2T8 (11738714_s_at) / RFU VCAN (11748164_a_at) / Fold change /veh VCAN (11748164_a_at) / RFU JSRP1 (11732532_at) / Fold change /veh JSRP1 (11732532_at) / RFU KRTAP10-11 (11738290_x_at) / Fold change /veh KRTAP10-11 (11738290_x_at) / RFU MYO3A (11730013_a_at) / Fold change /veh MYO3A (11730013_a_at) / RFU EBF3 (11725865_a_at) / Fold change /veh EBF3 (11725865_a_at) / RFU CAMK2N1 (11719241_x_at) / Fold change /veh CAMK2N1 (11719241_x_at) / RFU C5orf56 (11738088_a_at) / Fold change /veh C5orf56 (11738088_a_at) / RFU OLFML3 (11715873_a_at) / Fold change /veh OLFML3 (11715873_a_at) / RFU LOC100653217 /// NTM (11731650_a_at) / Fold change /veh LOC100653217 /// NTM (11731650_a_at) / RFU MAPK11 (11762145_a_at) / Fold change /veh MAPK11 (11762145_a_at) / RFU FIZ1 (11724087_x_at) / Fold change /veh FIZ1 (11724087_x_at) / RFU OASL (11726364_x_at) / Fold change /veh OASL (11726364_x_at) / RFU SOX15 (11748057_x_at) / Fold change /veh SOX15 (11748057_x_at) / RFU CD79A (11719716_a_at) / Fold change /veh CD79A (11719716_a_at) / RFU HIST1H1D (11736915_at) / Fold change /veh HIST1H1D (11736915_at) / RFU CASKIN2 (11723855_a_at) / Fold change /veh CASKIN2 (11723855_a_at) / RFU LOC730098 (11760151_x_at) / Fold change /veh LOC730098 (11760151_x_at) / RFU OR4N2 (11742367_at) / Fold change /veh OR4N2 (11742367_at) / RFU PRRT2 (11749266_a_at) / Fold change /veh PRRT2 (11749266_a_at) / RFU SNX32 (11753110_a_at) / Fold change /veh SNX32 (11753110_a_at) / RFU CDHR5 (11726645_a_at) / Fold change /veh CDHR5 (11726645_a_at) / RFU RCAN1 (11760418_a_at) / Fold change /veh RCAN1 (11760418_a_at) / RFU FAM167A (11723789_a_at) / Fold change /veh FAM167A (11723789_a_at) / RFU FAM26E (11764081_at) / Fold change /veh FAM26E (11764081_at) / RFU ISYNA1 (11749810_s_at) / Fold change /veh ISYNA1 (11749810_s_at) / RFU ACY1 (11761880_at) / Fold change /veh ACY1 (11761880_at) / RFU 11764098_at / Fold change /veh 11764098_at / RFU SAMD14 (11745864_x_at) / Fold change /veh SAMD14 (11745864_x_at) / RFU NPB (11741838_a_at) / Fold change /veh NPB (11741838_a_at) / RFU TMPRSS6 (11731388_a_at) / Fold change /veh TMPRSS6 (11731388_a_at) / RFU KRTAP10-2 (11738614_at) / Fold change /veh KRTAP10-2 (11738614_at) / RFU ARHGAP8 /// PRR5-ARHGAP8 (11727945_x_at) / Fold change /veh ARHGAP8 /// PRR5-ARHGAP8 (11727945_x_at) / RFU KRTAP5-7 /// NADSYN1 (11734609_at) / Fold change /veh KRTAP5-7 /// NADSYN1 (11734609_at) / RFU RASL12 (11751679_a_at) / Fold change /veh RASL12 (11751679_a_at) / RFU CDKN2B (11736163_a_at) / Fold change /veh CDKN2B (11736163_a_at) / RFU PRF1 (11729649_at) / Fold change /veh PRF1 (11729649_at) / RFU, ZNF638 /// ZNF638-IT1 / Fold change vs veh, ZNF638 /// ZNF638-IT1 / RFU, PANK3 / Fold change vs veh, PANK3 / RFU, SH3YL1 / Fold change vs veh, SH3YL1 / RFU, ZEB2 / Fold change vs veh, ZEB2 / RFU, NRIP1 / Fold change vs veh, NRIP1 / RFU, PTTG1IP / Fold change vs veh, PTTG1IP / RFU, CAPN2 / Fold change vs veh, CAPN2 / RFU, MED14 / Fold change vs veh, MED14 / RFU, SNORA58 / Fold change vs veh, SNORA58 / RFU, C1orf63 / Fold change vs veh, C1orf63 / RFU, LRRFIP1 / Fold change vs veh, LRRFIP1 / RFU, NDUFAF7 / Fold change vs veh, NDUFAF7 / RFU, SLC12A2 / Fold change vs veh, SLC12A2 / RFU, IBTK / Fold change vs veh, IBTK / RFU, ESF1 / Fold change vs veh, ESF1 / Fold change vs veh, TMEM50B / RFU, TAOK1 / Fold change vs veh, TAOK1 / RFU, ACBD3 / Fold change vs veh, ACBD3 / RFU, TMA16 / Fold change vs veh, TMA16 / RFU, RWDD3 / Fold change vs veh, RWDD3 / RFU, BCAT1 / Fold change vs veh, BCAT1 / RFU, EDEM3 / Fold change vs veh, EDEM3 / RFU, TMEM33 / Fold change vs veh, TMEM33 / RFU, WDR75 / Fold change vs veh, WDR75 / RFU, AHCTF1 / Fold change vs veh, AHCTF1 / RFU, TFRC / Fold change vs veh, TFRC / RFU, ZDHHC17 / Fold change vs veh, ZDHHC17 / RFU, NOM1 / Fold change vs veh, NOM1 / RFU, ARL8B / Fold change vs veh, ARL8B / RFU, ZBTB11 / Fold change vs veh, ZBTB11 / RFU, TAMM41 / Fold change vs veh, TAMM41 / RFU, KIAA1704 /// LOC100996395 / Fold change vs veh, KIAA1704 /// LOC100996395 / RFU, ING1 / Fold change vs veh, ING1 / RFU, TRMT61B / Fold change vs veh, TRMT61B / RFU, FUBP3 / Fold change vs veh, FUBP3 / RFU, TP53 / Fold change vs veh, TP53 / RFU, TNKS2 / Fold change vs veh, TNKS2 / RFU, ZFP14 / Fold change vs veh, ZFP14 / RFU, ACTR2 / Fold change vs veh, ACTR2 / RFU, PPP3R1 / Fold change vs veh, PPP3R1 / RFU, PIK3R1 / Fold change vs veh, PIK3R1 / RFU, HNRNPA1 / Fold change vs veh, HNRNPA1 / RFU, RNF170 / Fold change vs veh, RNF170 / RFU, ZNF28 / Fold change vs veh, ZNF28 / RFU, RNGTT / Fold change vs veh, RNGTT / RFU, OGT / Fold change vs veh, OGT / RFU, BRD1 / Fold change vs veh, BRD1 / RFU, MARS / Fold change vs veh, MARS / RFU, ZNF655 / Fold change vs veh, ZNF655 / RFU, FAHD1 / Fold change vs veh, FAHD1 / RFU, BDP1 / Fold change vs veh, BDP1 / RFU, LRRCC1 / Fold change vs veh, LRRCC1 / RFU, ARID1A / Fold change vs veh, ARID1A / RFU, ZNF146 / Fold change vs veh, ZNF146 / RFU, ZNF330 / Fold change vs veh, ZNF330 / RFU, GPN3 / Fold change vs veh, GPN3 / RFU, C9orf123 / Fold change vs veh, C9orf123 / RFU, N4BP2L2 / Fold change vs veh, N4BP2L2 / RFU, ARFIP1 / Fold change vs veh, ARFIP1 / RFU, FAM179B / Fold change vs veh, FAM179B / RFU, BCL10 / Fold change vs veh, BCL10 / RFU, UHRF1BP1L / Fold change vs veh, UHRF1BP1L / RFU, BET1 / Fold change vs veh, BET1 / RFU, CNOT2 / Fold change vs veh, CNOT2 / RFU, ZNF268 / Fold change vs veh, ZNF268 / Fold change vs veh, ZNF507 / RFU, DGCR2 / Fold change vs veh, DGCR2 / RFU, WDSUB1 / Fold change vs veh, WDSUB1 / Fold change vs veh, HSP90B1 /// MIR3652 / RFU, ADSS / Fold change vs veh, ADSS / RFU, GK / Fold change vs veh, GK / RFU, ZNF148 / Fold change vs veh, ZNF148 / RFU, TAF9 / Fold change vs veh, TAF9 / RFU, SLC1A5 / Fold change vs veh, SLC1A5 / RFU, SLMO2 / Fold change vs veh, SLMO2 / RFU, ABCC4 / Fold change vs veh, ABCC4 / RFU, LOC101060439 /// RAP1B / Fold change vs veh, LOC101060439 /// RAP1B / RFU, RFX7 / Fold change vs veh, RFX7 / RFU, GTPBP10 / Fold change vs veh, GTPBP10 / RFU, CNEP1R1 / Fold change vs veh, CNEP1R1 / RFU, BIVM-ERCC5 /// ERCC5 / Fold change vs veh, BIVM-ERCC5 /// ERCC5 / RFU, ILF3 / Fold change vs veh, ILF3 / RFU 11762660_at / Fold change /veh 11762660_at / RFU VCAN (11757783_s_at) / Fold change /veh VCAN (11757783_s_at) / RFU DDX43 (11728927_at) / Fold change /veh DDX43 (11728927_at) / RFU KRT8 (11758188_x_at) / Fold change /veh KRT8 (11758188_x_at) / RFU NKD1 (11759106_at) / Fold change /veh NKD1 (11759106_at) / RFU SRD5A1 (11742802_a_at) / Fold change /veh SRD5A1 (11742802_a_at) / RFU TPSAB1 /// TPSB2 (11721975_s_at) / Fold change /veh TPSAB1 /// TPSB2 (11721975_s_at) / RFU GSTM3 (11746129_a_at) / Fold change /veh GSTM3 (11746129_a_at) / RFU IL23R (11737362_x_at) / Fold change /veh IL23R (11737362_x_at) / RFU TMEM51 (11727254_a_at) / Fold change /veh TMEM51 (11727254_a_at) / RFU PIWIL2 (11732686_x_at) / Fold change /veh PIWIL2 (11732686_x_at) / RFU ORM1 (11744905_x_at) / Fold change /veh ORM1 (11744905_x_at) / RFU CCDC152 (11743942_at) / Fold change /veh CCDC152 (11743942_at) / RFU ECM1 (11717891_a_at) / Fold change /veh ECM1 (11717891_a_at) / RFU IL23R (11748794_a_at) / Fold change /veh IL23R (11748794_a_at) / RFU TNFAIP8L3 (11732012_x_at) / Fold change /veh TNFAIP8L3 (11732012_x_at) / RFU MBOAT4 (11741988_at) / Fold change /veh MBOAT4 (11741988_at) / RFU 11764193_at / Fold change /veh 11764193_at / RFU TMEM53 (11763286_at) / Fold change /veh TMEM53 (11763286_at) / RFU MAGEB2 (11727129_at) / Fold change /veh MAGEB2 (11727129_at) / RFU TMEM200A (11744735_a_at) / Fold change /veh TMEM200A (11744735_a_at) / RFU CCDC152 (11751479_a_at) / Fold change /veh CCDC152 (11751479_a_at) / RFU FAM211A (11726209_a_at) / Fold change /veh FAM211A (11726209_a_at) / RFU RGS16 (11746705_a_at) / Fold change /veh RGS16 (11746705_a_at) / RFU VCAN (11755009_s_at) / Fold change /veh VCAN (11755009_s_at) / RFU RHOB (11743442_s_at) / Fold change /veh RHOB (11743442_s_at) / RFU RGS16 (11720943_a_at) / Fold change /veh RGS16 (11720943_a_at) / RFU RGS16 (11720944_at) / Fold change /veh RGS16 (11720944_at) / RFU, VPS4B / Fold change vs veh, VPS4B / RFU, CREB1 / Fold change vs veh, CREB1 / RFU, DNAJC13 / Fold change vs veh, DNAJC13 / RFU, GNAQ / Fold change vs veh, GNAQ / RFU, CDK5R1 / Fold change vs veh, CDK5R1 / RFU, ZRANB3 / Fold change vs veh, ZRANB3 / RFU, CUL4A / Fold change vs veh, CUL4A / RFU, CCNY / Fold change vs veh, CCNY / RFU, UFL1 / Fold change vs veh, UFL1 / RFU, COG3 / Fold change vs veh, COG3 / RFU, DIAPH2 / Fold change vs veh, DIAPH2 / RFU, SKA2 / Fold change vs veh, SKA2 / RFU, AFF3 / Fold change vs veh, AFF3 / RFU, LMF1 / Fold change vs veh, LMF1 / RFU, IPO11 / Fold change vs veh, IPO11 / RFU, DFFB / Fold change vs veh, DFFB / RFU, FOXP1 / Fold change vs veh, FOXP1 / RFU, CARD8 / Fold change vs veh, CARD8 / RFU, STRN3 / Fold change vs veh, STRN3 / RFU, ADK / Fold change vs veh, ADK / RFU, RASSF2 / Fold change vs veh, RASSF2 / RFU, WIPF1 / Fold change vs veh, WIPF1 / RFU, LARP1B / Fold change vs veh, LARP1B / RFU, RASA1 / Fold change vs veh, RASA1 / RFU, RB1 / Fold change vs veh, RB1 / RFU, PPFIA1 / Fold change vs veh, PPFIA1 / RFU, MAT2A / Fold change vs veh, MAT2A / RFU, CCT5 / Fold change vs veh, CCT5 / RFU, WDR92 / Fold change vs veh, WDR92 / RFU, CUX1 / Fold change vs veh, CUX1 / RFU, TTC7A / Fold change vs veh, TTC7A / RFU, TMEM135 / Fold change vs veh, TMEM135 / RFU, DEPTOR / Fold change vs veh, DEPTOR / RFU, CPM / Fold change vs veh, CPM / RFU, DNAJB6 / Fold change vs veh, DNAJB6 / RFU, CACNA2D3 / Fold change vs veh, CACNA2D3 / RFU, DTX4 / Fold change vs veh, DTX4 / RFU, TFCP2 / Fold change vs veh, TFCP2 / RFU, GMCL1 /// GMCL1P1 / Fold change vs veh, GMCL1 /// GMCL1P1 / RFU, AEBP2 / Fold change vs veh, AEBP2 / RFU, SNHG1 /// SNORD22 /// SNORD25 /// SNORD26 /// SNORD27 /// SNORD28 /// SNORD29 /// SNORD31 / Fold change vs veh, SNHG1 /// SNORD22 /// SNORD25 /// SNORD26 /// SNORD27 /// SNORD28 /// SNORD29 /// SNORD31 / Fold change (Aza/veh), C12orf56 (ProbeSet 11735607_a_at) / Fold change (ACY-1035/veh), C12orf56 (ProbeSet 11735607_a_at) / Fold change (Aza/veh), FGFR1OP (ProbeSet 11751329_s_at) / Fold change (ACY-1035/veh), FGFR1OP (ProbeSet 11751329_s_at) / Fold change (Aza/veh), VPS36 (ProbeSet 11739960_a_at) / Fold change (ACY-1035/veh), VPS36 (ProbeSet 11739960_a_at) / RFU SYPL1 (11715823_x_at) / Fold change /veh SYPL1 (11715823_x_at) / RFU IGFBP7 (11715501_s_at) / Fold change /veh IGFBP7 (11715501_s_at) / RFU REEP3 (11722064_at) / Fold change /veh REEP3 (11722064_at) / RFU IGLL1 (11728026_x_at) / Fold change /veh IGLL1 (11728026_x_at): dose or concentration left out as unconfirmed
Conditions: ProbeSet 11749645_x_at; LIST B

Nc1ccc(-c2cccs2)cc1NC(=O)c1ccc2c(c1)cc(C1CC1)n2CCN1CCOCC1 [ACY-1035]
Fold change vs veh, ZNF268: 0.87
